{
  "source": "patent US7914478B2",
  "about": "“Intrapelvic perfusion therapy with cancer therapeutic agent and apparatus for intrapelvic perfusion with cancer therapeutic agent” (priority 2002, dated 2011)",
  "parameters": "species or system patients",
  "details": "human, in vivo",
  "method": "The intrapelvic perfusion therapy with cancer therapeutic agent of the present invention was carried out as explained below.\nThe perfusion was continued 30 minutes with keeping the difference between injection and aspiration flow rate was kept 20-25 [ml/min]. After performing this intrapelvic perfusion therapy, the blood of the intrapelvic circulation was dialyzed for 30 min.",
  "data": [
    {"molecule": "N.N.[Cl][Pt][Cl]", "note": "[Cisplatin]", "values": [
      {"measurement": "percentage of drug leading from pelvic to systemic compartment during drug infusion", "value": "about 20%"}
    ]}
  ]
}
